{"source": "ChEMBL document CHEMBL3351562", "about": "“Oxo- and thiooxo-imidazo[1,5-c]pyrimidine molecule library: beyond their interest in inhibition of Brucella suis histidinol dehydrogenase, a powerful protection tool in the synthesis of histidine analogues” (Bioorg Med Chem Lett, 2014)", "note": "pIC50: −log10 of the molar value.", "data": [{"test": "Inhibition of Brucella suis histidinol dehydrogenase assessed as NADH released as a by-product preincubated for 5 min at 30 degC by spectrophotometric method", "values": [{"smiles": "O=C(Cc1ccc(-c2ccccc2)cc1)[C@@H]1Cc2cncn2C(=S)N1", "pIC50": 5.30}, {"smiles": "CCCCCc1ccc(C#Cc2ccc(CC(=O)[C@@H](N)Cc3c[nH]cn3)cc2)cc1", "pIC50": 8.05}, {"smiles": "N[C@@H](Cc1c[nH]cn1)C(=O)Cc1ccc(F)cc1F", "pIC50": 8.00}, {"smiles": "N[C@@H](Cc1c[nH]cn1)C(=O)Cc1ccc(Br)cc1", "pIC50": 8.22}, {"smiles": "COC(=O)[C@@H]1Cc2cncn2C(=O)N1", "pIC50": 3.27}, {"smiles": "O=C(Cc1ccc(F)cc1F)[C@@H]1Cc2cncn2C(=S)N1", "pIC50": 4.02}, {"smiles": "CCCCCc1ccc(C#Cc2ccc(CC(=O)[C@@H]3Cc4cncn4C(=S)N3)cc2)cc1", "pIC50": 3.49}, {"smiles": "Cc1ccc(CC(=O)[C@@H](N)Cc2c[nH]cn2)cc1", "pIC50": 7.82}, {"smiles": "O=C(Cc1ccc(Br)cc1)[C@@H]1Cc2cncn2C(=S)N1", "pIC50": 3.98}, {"smiles": "O=C(Cc1ccc(-c2ccccc2)cc1)[C@@H]1Cc2cncn2C(=O)N1", "pIC50": 4.07}, {"smiles": "O=C(Cc1ccc(Br)cc1)[C@@H]1Cc2cncn2C(=O)N1", "pIC50": 4.01}, {"smiles": "Cc1ccc(CC(=O)[C@@H]2Cc3cncn3C(=O)N2)cc1", "pIC50": 3.95}, {"smiles": "COC(=O)[C@@H]1Cc2cncn2C(=S)N1", "pIC50": 4.74}, {"smiles": "O=C(Cc1ccc(Cl)cc1)[C@@H]1Cc2cncn2C(=O)N1", "pIC50": 4.04}, {"smiles": "O=C(Cc1ccc(Cl)cc1)[C@@H]1Cc2cncn2C(=S)N1", "pIC50": 4.13}, {"smiles": "N[C@@H](Cc1c[nH]cn1)C(=O)Cc1ccc(-c2ccccc2)cc1", "pIC50": 7.92}, {"smiles": "N[C@@H](Cc1c[nH]cn1)C(=O)Cc1ccc(Cl)cc1", "pIC50": 7.92}, {"smiles": "CCCCCc1ccc(C#Cc2ccc(CC(=O)[C@@H]3Cc4cncn4C(=O)N3)cc2)cc1", "pIC50": 3.76}, {"smiles": "Cc1ccc(CC(=O)[C@@H]2Cc3cncn3C(=S)N2)cc1", "pIC50": 4.02}, {"smiles": "O=C(Cc1ccc(F)cc1F)[C@@H]1Cc2cncn2C(=O)N1", "pIC50": 3.84}]}]}
